Measurements published in patent US20250129104A1, “7H-PYRROLO[2,3-D]PYRIMIDINES AND PREPARATION AND USES THEREOF” (BioSplice Therapeutics, Inc., priority 2021, published 2025).

Experiments:
[1] = system: Tau phosphorylation at Thr212 (pThr212); experiment: tau phosphorylation assay: phosphoTau (Thr212) AlphaLISA in HEK293T cells transfected with DYRK1A and MAPT; assay type: cell-based; settings: HEK-293T; HEK293T cells transfected with human DYRK1A and MAPT; 18-24 h compound treatment; read-out: pTau (Thr212) EC50
Experimental: Representative compounds were screened using the assay procedure for tau phosphorylation activity described below.
HEK293T cells (ATCC, CRL3216) cultured in DMEM (Thermo Fisher Scientific, 10566024) supplemented with 10% FBS (Corning, 35-011-CV) and Penicillin/Streptomycin (Thermo Fisher Scientific, 15140163) were seeded in a 75 cm^2 flask at 8.1×10^6 cells/flask. The HEK293T cells were then transiently transfected with 5 μg DYRK1A (NM_001396) human untagged clone (OriGene, SC314641) and 2.5 μg MAPT (441 a.a. Tau gene) (NM_005910) human untagged clone (OriGene, TP313312) using Lipofectamine 3000 (Thermo Fisher Scientific, L30000015) and incubated for 20-30 hours in a humidified incubator at 37° C. and 5% CO2. Post-incubation, HEK293T cells transfected with the DYRK1A and MAPT expression vectors were harvested and seeded in BioCoat poly-D lysine coated 96-well plates (Corning, 354461) at 3×10^4 cells/well.
The above synthesized compounds were screened using the cell assay procedure to assess decreased Tau phosphorylation at Thr212 (pThr212) described below.
Each compound was dissolved in DMSO (Sigma-Aldrich, D8418-100 mL) as a 10 mM stock. 10 mM stocks were serially diluted 1:3, 10-point dose-response curve and added to the cells with a final concentration ranging from 20 μM to 1.1 nM. Cell were treated with compounds in duplicate and incubated for 18-24 hours in a humidified incubator at 37° C. and 5% CO2.
Following the overnight compound treatment, cells were lysed with 1× Alpha Surefire Ultra Lysis Buffer (Perkin Elmer, ALSU-LB-100ML) complemented with 1× Halt Phosphatase Inhibitor Cocktail (Thermo Fisher Scientific, 78427) and 1× Halt Protease Inhibitor Cocktail (Thermo Fisher Scientific, 78438). Lysates were spun down at 12,000 g for 10 min to remove any cellular debris and 5 μL of lysates were dispensed into a 384-well Opti-Plate (Perkin Elmer, 6007290) for the measurement of Tau phosphorylation in the phosphoTau (Thr212) AlphaLISA assay. Donor antibody, biotinylated HT7Tau (Thermo Fisher Scientific, MN1000B), and acceptor antibody, pThr212Tau (Thermo Fisher Scientific, 44740G) were both added to the cell lysates at a final concentration of 3 nM and incubated for 1 hour at room temperature. Following incubation of the lysates with the donor and acceptor antibodies, anti-rabbit IgG (Fc specific) AlphaLISA acceptor beads (Perkin Elmer, AL104C) were added at a 10 μg/mL final concentration and incubated for 1 hour at room temperature protected from light. Lastly, AlphaScreen streptavidin donor beads (PerkinElmer, 6760002) were added at 40 μg/mL final concentration and incubated for 1 hour at room temperature protected from light. Plates were read at […], and Em=615 nm on the EnVision Multilabel Plate Reader (Perkin Elmer). PhosphoTau (Thr212) AlphaLISA signal was used to plot, draw the curve fitting, and determine each compound's EC50 in Prism (GraphPad).

[2] = target: recombinant DYRK1A kinase (Homo sapiens (Human), UniProt Q13627); experiment: DYRK1A kinase assay (Ser/Thr 18 peptide Z-lyte FRET assay); assay type: biochemical; settings: DYRK1A kinase activity; 15 μM ATP, 1 h room temperature; method text calls the value IC50
In short: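 FRET Z-lyte read-out (coumarin/fluorescein ratio, % phosphorylation) after 1 h development; IC50 from non-linear curve fit. Reaction: 0.25 μg/mL recombinant human DYRK1A, Ser/Thr 18 peptide 4 μM, ATP 15 μM, compound in 11-point 1:3 series from 10 μM, 1 h, room temperature, duplicate wells.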

Row | SMILES | EC50 [1] [nM] | EC50 [2] [nM]
1 | FC1(CNc2ncc3c(-c4ccc5ncnn5c4)c[nH]c3n2)CCC1 [Compound 745, 5-([1,2,4]Triazolo[1,5-a]pyridin-6-yl)-N-((1-fluorocyclobutyl)methyl)-7H-pyrrolo[2,3-d]pyrimidin-2-amine] | 90 | 5.1
2 | FC1(F)CCC(Nc2ncc3c(-c4ccc5ncnn5c4)c[nH]c3n2)CC1 [Compound 746, 5-([1,2,4]Triazolo[1,5-a]pyridin-6-yl)-N-(4,4-difluorocyclohexyl)-7H-pyrrolo [2,3-d]pyrimidin-2-amine] | 521 | 29.2
3 | FC1(CNc2ncc3c(-c4ccc5ncnn5c4)c[nH]c3n2)CCCCC1 [Compound 748, 5-([1,2,4]Triazolo[1,5-a]pyridin-6-yl)-N-((1-fluorocyclohexyl)methyl)-7H-pyrrolo[2,3-d]pyrimidin-2-amine] | 174 | 20
4 | FC1(F)CCC(CNc2ncc3c(-c4ccc5ncnn5c4)c[nH]c3n2)CC1 [Compound 749, 5-([1,2,4]Triazolo[1,5-a]pyridin-6-yl)-N-((4,4-difluorocyclohexyl)methyl)-7H-pyrrolo[2,3-d]pyrimidin-2-amine] | 80 | 7
5 | CN1CCC(Nc2ncc3c(-c4ccc5ncnn5c4)c[nH]c3n2)CC1 [Compound 750, 5-([1,2,4]Triazolo[1,5-a]pyridin-6-yl)-N-(1-methylpiperidin-4-yl)-7H-pyrrolo [2,3-d]pyrimidin-2-amine] | 67 | 26.9
6 | CC(C)CNc1ncc2c(-c3cc(F)c4ncnn4c3)c[nH]c2n1 [Compound 771, 5-(8-Fluoro-[1,2,4]triazolo[1,5-a]pyridin-6-yl)-N-isobutyl-7H-pyrrolo[2,3-d]pyrimidin-2-amine] | 470 | 18
7 | CC(C)(F)CNc1ncc2c(-c3ccn4ncnc4c3)c[nH]c2n1 [Compound 805, 5-([1,2,4]Triazolo[1,5-a]pyridin-7-yl)-N-(2-fluoro-2-methylpropyl)-7H-pyrrolo[2,3-d]pyrimidin-2-amine] | 439 | 11.3
8 | C[C@@H](Nc1ncc2c(-c3ccc4nnn(C)c4c3)c[nH]c2n1)C1CC1 [Compound 831, (R)—N-(1-Cyclopropylethyl)-5-(1-methyl-1H-benzo[d][1,2,3]triazol-6-yl)-7H-pyrrolo[2,3-d]pyrimidin-2-amine] | 165 | 7.3
9 | CO[C@H]1CC[C@@H](Nc2ncc3c(-c4ccc5nnn(C)c5c4)c[nH]c3n2)CC1 [Compound 838, N-(cis-4-Methoxycyclohexyl)-5-(1-methyl-1H-benzo[d][1,2,3]triazol-6-yl)-7H-pyrrolo[2,3-d]pyrimidin-2-amine] | 25 | 9.8
10 | CC(C)(F)CNc1ncc2c(-c3ccc4nccn4n3)c[nH]c2n1 [Compound 909, N-(2-Fluoro-2-methylpropyl)-5-(imidazo[1,2-b]pyridazin-6-yl)-7H-pyrrolo [2,3-d]pyrimidin-2-amine] | 40 | 3.4
11 | CC(F)(F)CNc1ncc2c(-c3ccc4nccn4n3)c[nH]c2n1 [Compound 910, N-(2,2-Difluoropropyl)-5-(imidazo[1,2-b]pyridazin-6-yl)-7H-pyrrolo[2,3-d]pyrimidin-2-amine] | 283 | 18.6
12 | C[C@@H](Nc1ncc2c(-c3ccc4nccn4n3)c[nH]c2n1)C(F)(F)F [Compound 912, (R)-5-(Imidazo[1,2-b]pyridazin-6-yl)-N-(1,1,1-trifluoropropan-2-yl)-7H-pyrrolo[2,3-d]pyrimidin-2-amine] | 96 | 5.5
13 | C[C@H](Nc1ncc2c(-c3ccc4nccn4n3)c[nH]c2n1)C(F)(F)F [Compound 913, (S)-5-(Imidazo[1,2-b]pyridazin-6-yl)-N-(1,1,1-trifluoropropan-2-yl)-7H-pyrrolo[2,3-d]pyrimidin-2-amine] | 228 | 6.4
14 | CC1(CNc2ncc3c(-c4ccc5nccn5n4)c[nH]c3n2)CC1 [Compound 919, 5-(Imidazo[1,2-b]pyridazin-6-yl)-N-((1-methylcyclopropyl)methyl)-7H-pyrrolo[2,3-d]pyrimidin-2-amine] | 30 | 4
15 | FC(F)(F)C1(CNc2ncc3c(-c4ccc5nccn5n4)c[nH]c3n2)CC1 [Compound 920, 5-(Imidazo[1,2-b]pyridazin-6-yl)-N-((1-(trifluoromethyl)cyclopropyl)methyl)-7H-pyrrolo[2,3-d]pyrimidin-2-amine] | 70 | 6.1
16 | FC1(CNc2ncc3c(-c4ccc5nccn5n4)c[nH]c3n2)CCC1 [Compound 923, N-((1-Fluorocyclobutyl)methyl)-5-(imidazo[1,2-b]pyridazin-6-yl)-7H-pyrrolo[2,3-d]pyrimidin-2-amine] | 20 | 2.5
17 | FC1(F)CCC(Nc2ncc3c(-c4ccc5nccn5n4)c[nH]c3n2)CC1 [Compound 924, N-(4,4-Difluorocyclohexyl)-5-(imidazo[1,2-b]pyridazin-6-yl)-7H-pyrrolo [2,3-d]pyrimidin-2-amine] | 20 | 3.2
18 | CO[C@H]1CC[C@@H](Nc2ncc3c(-c4ccc5nccn5n4)c[nH]c3n2)CC1 [Compound 925, 5-(Imidazo[1,2-b]pyridazin-6-yl)-N-(cis-4-methoxycyclohexyl)-7H-pyrrolo[2,3-d]pyrimidin-2-amine] | 25 | 3.2
19 | Cc1cnc2ccc(-c3c[nH]c4nc(NCC(C)(C)F)ncc34)nn12 [Compound 1038, N-(2-Fluoro-2-methylpropyl)-5-(3-methylimidazo[1,2-b]pyridazin-6-yl)-7H-pyrrolo[2,3-d]pyrimidin-2-amine] | 33 | 4.2
20 | COc1nc(CC(C)C)nc2[nH]cc(-c3ccn4nccc4c3)c12 [Compound 1113, 2-Isobutyl-4-methoxy-5-(pyrazolo[1,5-a]pyridin-5-yl)-7H-pyrrolo[2,3-d]pyrimidine] | 572 | 9.2
21 | c1cc2cc(-c3c[nH]c4nc(C5CC5)ncc34)ccn2n1 [Compound 1115, 2-Cyclopropyl-5-(pyrazolo[1,5-a]pyridin-5-yl)-7H-pyrrolo[2,3-d]pyrimidine] | 386 | 24.9
22 | CO[C@H]1C[C@@H](Nc2ncc3c(-c4ccn5nccc5c4)c[nH]c3n2)C1 [Compound 1140, N-(cis-3-Methoxycyclobutyl)-5-(pyrazolo[1,5-a]pyridin-5-yl)-7H-pyrrolo [2,3-d]pyrimidin-2-amine] | 6 | 2.6
23 | c1cc2cc(-c3c[nH]c4nc(NC5CC6(COC6)C5)ncc34)ccn2n1 [Compound 1141, 5-(Pyrazolo[1,5-a]pyridin-5-yl)-N-(2-oxaspiro[3.3]heptan-6-yl)-7H-pyrrolo [2,3-d]pyrimidin-2-amine] | 7 | 385
24 | FC1(F)CCC(Nc2ncc3c(-c4ccn5nccc5c4)c[nH]c3n2)CC1 [Compound 1142, N-(4,4-Difluorocyclohexyl)-5-(pyrazolo[1,5-a]pyridin-5-yl)-7H-pyrrolo[2,3-d]pyrimidin-2-amine] | 32 | 5.7
25 | CO[C@H]1CC[C@@H](Nc2ncc3c(-c4ccn5nccc5c4)c[nH]c3n2)CC1 [Compound 1143, N-(cis-4-Methoxycyclohexyl)-5-(pyrazolo[1,5-a]pyridin-5-yl)-7H-pyrrolo [2,3-d]pyrimidin-2-amine] | 4 | 3.7
